Experimental data taken from US20020045664A1, “Estrogen mimetics lacking reproductive tract effects” (The University of Georgia Research Foundation, Inc, priority 1999, published 2002).
Entries after “also recorded” stand apart in the source; their conditions may differ. Marks after values point to notes of the source that are not given here.

Assays:
[1] = molecular target: estrogen receptor (Homo sapiens, UniProt P03372); details: cited from earlier work
[2] = system: OVX rat; assay: Serum rat osteocalcin radioimmunoassay in OVX rats; format: in vivo; details: for increase in serum OC: OVX animals, with respect to OVX vehicle controls; for Relative Serum OC Level, mean (SD): relative to OVX-17β-estradiol treated group (=100)
Description: (§1) In the first experiment 50 female Sprague-Dawley rats that were approximately 90 days of age and weighed an average of 240 g at the beginning of the study were used. Animal care and handling was carried out solely at the AAALAC accredited animal facility at the University of Georgia College of Pharmacy, in accordance with a protocol approved by the University of Georgia Institutional Animal Care and Use Committee. On the day of surgery (day 0), all rats were anesthetized with an intraperitoneal (i.p.) injection of ketamine hydrochloride and xylazine at doses of 50 mg/kg body weight and 10 mg/kg body weight, respectively. Ten rats were sham-operated during which the ovaries were exteriorized but replaced intact. Bilateral ovariectomies were performed in the remaining 40 rats from a dorsal approach. Each rat was housed individually at 25° C. with a light/dark cycle of 13 hours/11 hours. Food (Teklad 22/5 Rodent Diet, Madison, Wis.), with calcium and phosphate contents of 0.95% and 0.67%, respectively, was available ad libitum to all animals.
(§2) Sham-operated rats (N=10) and one of the four groups of OVX rats (N=10) were injected subcutaneously (s.c.) with vehicle (5% benzyl alcohol in corn oil) 5 days per week for 5 weeks. […] The above treatments were initiated on the first day after surgery. The dose level of 17β-estradiol was believed to be optimal based on earlier studies (T. Wronski et al., Endocrinology 123:681-686 (1988)). […] Each rat was injected s.c. with demeclocycline and calcein (Sigma Chemical Co., St. Louis, Mo.) at a dose of 15 mg/kg body weight on the 10th and 3rd days before sacrifice, respectively, to label sites of bone formation.
(§3) A second experiment, using 40 animals, was performed in exactly the same manner described above, in which effects of the s.c. administration of 3.7 mg/kg/day of 4HTA to one group of OVX animals was compared to the effects of vehicle or 17β-estradiol in three other groups (vehicle treated sham OVX, vehicle treated OVX, and 17β-estradiol-treated OVX rats).
(§4) All rats were sacrificed by exsanguination from the abdominal aorta under ketamine/xylazine anesthesia. Failure to detect ovarian tissue and observation of marked atrophy of the uterine horns confirmed the success of ovariectomy. The body weight of each animal was recorded, as was uterine wet weight. Blood samples were allowed to coagulate at room temperature (2 hours) in a Vacutainer tube. Serum was obtained by centrifugation for 10 minutes at 3000 rpm, and samples were stored at −80° C. until analyzed. The right tibia was removed at necropsy, dissected free of muscle, and cut in half cross-sectionally with a hand-held saw (Dremel Moto Tool, Racine, Wis.). The bone samples were then placed in 10% phosphate-buffered formalin for 24 hours for tissue fixation.
Materials, as well as standard protocols for their use, were obtained from Biomedical Technologies, Inc., Stoughton Mass. Serum samples from each member of the different treatment groups were diluted 1:20. Duplicate aliquots (100 μL) of each diluted sample were incubated in an orbital shaker at 80 rpm ([…]) for 16 hours with the first antibody and nonimmune serum in RIA buffer (final volume 0.5 mL). An aliquot of [^125I]-osteocalcin (10 nCi, 0.034 ng) in 100 μL of RIA buffer was then added to each tube and incubation was continued for 24 hours. Then the second (precipitating) antibody was added in 1 mL of modified buffer, and incubation was continued for 4 hours. Tubes were then centrifuged at 1500×g for 15 minutes. Pellets were washed with cold distilled water and recentrifuged as before. Supernatant was decanted and radioactivity in pellets was determined using a gamma counter. Serum osteocalcin levels were determined by comparing the sample values (cpm) to the linear region of a standard curve of cpm/pellet vs. the amount of osteocalcin present, obtained from incubations to which known amounts (0-0.35 ng) of osteocalcin had been added. […]

[3] = system: MCF-7 cells; details: cited from earlier work; for maximal growth-stimulatory effect, as a percent of that of estradiol: MCF-7 cell proliferation assay; for EC50: concentration at which growth stimulation was 50% maximal, read-out: MCF-7 Cell Growth EC50
[4] = system: OVX rat; assay: OVX rat: body weight and uterine wet weight; format: in vivo; details: for greater uterine weight compared to vehicle-treated OVX animals: 17β-estradiol: average of both experiments, 4HTA: vs respective OVX vehicle controls; for Body Weight, mean (SD) / Uterine Weight, mean (SD): OVX rats, 17β-estradiol 10 μg/kg/day; for Body Weight, mean (SD): s.c. 5 days/week for 5 weeks; for increase in overall body weight after ovariectomy: five-week course of the two studies, subcutaneous five days per week; for Uterine Weight, mean (SD): s.c. 5 weeks
Description: as §1, §2, §3, §4

[5] = system: MCF 7 human breast cancer cells; details: estradiol-stimulated MCF-7 proliferation; cited from earlier work
[6] = system: rat uterus (uterine weight gain); design: Rat Uterotrophic Assay % Efficacy: concentration or dose not given beside the values; details: cited from earlier work; for Rat Uterotrophic Assay ED50: dose at which uterine weight gain was 50% maximal; for Rat Uterotrophic Assay % Efficacy: in vivo
[7] = system: OVX rat; assay: OVX rat: cancellous bone histomorphometry, proximal tibial metaphysis; format: in vivo; details: OVX rats; for osteoblast surface: 35 days after surgery; for Mineral apposition rate (MAR): 35 days postsurgery
Description: as §1, §2, §3
The proximal halves of the tibiae were dehydrated by immersion in ethanol, and embedded undecalcified in methyl methacrylate. Longitudinal sections (4- and 8-μm thick) were cut with AO Autocut/Jung 1150 or 2050 microtomes. The 4-μm thick sections were stained according to the Von Kossa method with a tetrachrome counterstain (Polysciences Inc., Warrington, Pa.). Bone measurements were performed in cancellous bone tissue of the proximal tibial metaphysis beginning at distances 1 mm distal to the growth plate-metaphyseal junction to exclude the primary spongiosa. In general, two sections of the proximal tibia, with a total of 40-50 mm of cancellous bone perimeter, were sampled in each animal with an appreciable amount of cancellous bone. Additional sections were sampled in osteopenic animals to approximate the cancellous bone perimeter sampled in animals with greater cancellous bone mass.
Bone measurements were performed with the Bioquant Bone Morphometry System (R&M Biometrics Corp., Nashville, Tenn.) as described in T. Wronski et al. (Calcif. Tissue Int. 53:210-216 (1993)). Cancellous bone volume as a percentage of bone tissue area and osteoblast and osteoclast surfaces as percentages of total cancellous perimeter were measured in 4-μm thick, stained sections.
Fluorochrome-based indices of bone formation were measured in unstained, 8-μm-thick sections of the proximal tibial metaphysis. The percentage of cancellous bone surface with a double fluorochrome label (mineralizing surface) and mineral apposition rate were measured with the Bioquant system. In addition, bone formation rate (tissue level, total surface referent) was calculated by multiplying mineralizing surface by mineral apposition rate (H. Frost, Bone histomorphometry: analysis of trabecular bone dynamics. In: Recker R. R., Ed. Bone Histomorphometry: Techniques and Interpretation. Boca Raton, Fla.: CRC Press; 1983; 109-132).

[8] = system: OVX rat; assay: Serum cholesterol in OVX rats; format: in vivo; details: for Serum Cholesterol, mean (SD): experiment 1
Description: as §1, §2
All rats were sacrificed by exsanguination from the abdominal aorta under ketamine/xylazine anesthesia. Failure to detect ovarian tissue and observation of marked atrophy of the uterine horns confirmed the success of ovariectomy. The body weight of each animal was recorded, as was uterine wet weight. […] Serum was obtained by centrifugation for 10 minutes at 3000 rpm, and samples were stored at −80° C. until analyzed. […]

[9] = system: OVX rat; assay: OVX rat: cortical bone histomorphometry, tibial diaphysis; format: in vivo; details: OVX rats
Description: In the first experiment 50 female Sprague-Dawley rats that were approximately 90 days of age and weighed an average of 240 g at the beginning of the study were used. Animal care and handling was carried out solely at the AAALAC accredited animal facility at the University of Georgia College of Pharmacy, in accordance with a protocol approved by the University of Georgia Institutional Animal Care and Use Committee. On the day of surgery (day 0), all rats were anesthetized with an intraperitoneal (i.p.) injection of ketamine hydrochloride and xylazine at doses of 50 mg/kg body weight and 10 mg/kg body weight, respectively. […]
Bone measurements were performed with the Bioquant Bone Morphometry System (R&M Biometrics Corp., Nashville, Tenn.). Cortical bone tissue area and bone marrow area were measured in one section per animal at a magnification of 20×. Cortical bone area was calculated by subtracting marrow area from cortical bone tissue area. Cortical width was measured from the periosteal to the endocortical surfaces at four equally spaced sites at the anterior (cranial), posterior (caudal), medial, and lateral aspects of each cross-section. […]
Fluorochrome-based indices of bone formation were measured under UV illumination at magnifications of 100× and 200× for mineralizing surface and mineral apposition rate, respectively. […]

[10] = system: OVX rat; assay: OVX rat: body weight and uterine wet weight; format: in vivo
[11] = system: mouse uterus (uterine weight gain); details: dose at which uterine weight gain was 50% maximal; cited from earlier work
[12] = experiment 2, 4HTA 3.7 mg/kg/day
[13] = experiment 1, HPPA 3.6 mg/kg/day

Sequence of estrogen receptor (P03372 whole entry): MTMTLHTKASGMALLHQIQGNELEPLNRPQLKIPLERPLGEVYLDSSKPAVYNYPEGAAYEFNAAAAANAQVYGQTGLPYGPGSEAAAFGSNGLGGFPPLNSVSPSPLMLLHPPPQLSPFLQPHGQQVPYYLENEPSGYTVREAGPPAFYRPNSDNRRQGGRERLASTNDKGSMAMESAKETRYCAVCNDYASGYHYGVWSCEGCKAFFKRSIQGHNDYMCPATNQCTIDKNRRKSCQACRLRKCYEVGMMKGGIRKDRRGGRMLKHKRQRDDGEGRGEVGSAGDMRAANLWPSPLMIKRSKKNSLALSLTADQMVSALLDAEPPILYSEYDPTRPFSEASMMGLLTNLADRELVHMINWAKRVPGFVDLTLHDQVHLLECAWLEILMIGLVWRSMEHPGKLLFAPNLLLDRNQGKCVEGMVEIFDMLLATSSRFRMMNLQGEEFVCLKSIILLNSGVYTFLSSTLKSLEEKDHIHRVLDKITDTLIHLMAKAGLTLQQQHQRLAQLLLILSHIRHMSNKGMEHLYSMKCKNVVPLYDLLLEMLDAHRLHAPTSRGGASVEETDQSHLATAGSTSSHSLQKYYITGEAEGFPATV

## CCC(=C(c1ccc(O)cc1)c1ccc(OCC(=O)O)cc1)c1ccccc1 [4HTA, (E,Z)-2-{4-[1-(p-hydroxyphenyl)-2-phenyl]-1-butenyl}phenoxyacetic acid]
[1]
  relative estrogen receptor binding affinity (RBA): 20% of estradiol binding affinity
[2]
  increase in serum OC: did not differ
[2]; experiment 2
  Relative Serum OC Level, mean (SD): 188 (42)^c
[3]
  maximal growth-stimulatory effect, as a percent of that of estradiol: 79%
[4]
  greater uterine weight compared to vehicle-treated OVX animals: 25%
  increase in overall body weight after ovariectomy: not observed
[4]; [12]
  Body Weight, mean (SD): 305 (12)^b,c g
[5]
  estrogen antagonist activity in growth inhibition assay in the presence of estrogen: weak antagonist potency; also recorded: weakly inhibits

## C[C@]12CC[C@@H]3c4ccc(O)cc4CC[C@H]3[C@@H]1CC[C@@H]2O [17β-estradiol]
[6]
  Rat Uterotrophic Assay ED50: 0.16 µg/day
  Rat Uterotrophic Assay % Efficacy: 100%
[7]; experiment 1
  osteoblast surface: suppressed at the control level
  Mineral apposition rate (MAR): maintained at the control level
[7]; experiment 1, vs vehicle-treated control rats
  mineralizing surface (cancellous): significantly lower
[7]; second experiment, mean ±SD
  cancellous bone volume: 24.0±5.5%
[8]
  Serum Cholesterol, mean (SD): 80 (3.5)^c mg/dL
[9]
  periosteal bone formation rate: inhibited periosteal bone formation rate to a level below that of vehicle-treated control rats
[2]
  increase in serum OC: prevented this increase
[2]; experiment 1
  Relative Serum OC Level, mean (SD): 100 (33)^b
[2]; experiment 2
  Relative Serum OC Level, mean (SD): 100 (16)^b
[3]
  MCF-7 Cell Growth % Efficacy: 100%
  EC50: 0.02 nM
[4]
  greater uterine weight compared to vehicle-treated OVX animals: 167%
  increase in overall body weight after ovariectomy: not observed
[4]; [13]
  Uterine Weight, mean (SD): 269 (48)^b,c mg
  Body Weight, mean (SD): 310 (24)^b g
[4]; [12]
  Uterine Weight, mean (SD): 225 (30)^b,c mg
  Body Weight, mean (SD): 303 (12)^b g

## O=C(O)COc1ccc(C(Cc2ccccc2)c2ccc(O)cc2)cc1 (stereo not shown) [HPPA, 4-[1-(4-hydroxyphenyl)-2-phenylethyl]phenoxyacetic acid]
[7]; experiment 1
  osteoblast surface: partially suppressed
  Mineral apposition rate (MAR): no effect
[10]; s.c.
  Rat Uterotrophic Assay ED50 (HPPA, Ex. III): >3400 µg/day
[10]; sc, read-out: Rat Uterotrophic Assay % Efficacy (HPPA), s.c., Ex. III
  Emax: 0%
[8]; 10 μmol/kg sc
  reduction in serum cholesterol with respect to vehicle-treated OVX animals: 10%
[8]
  Serum Cholesterol, mean (SD): 72 (1.9)^b,c,d mg/dL
[9]
  periosteal bone formation rate: did not inhibit
[2]
  increase in serum OC: 34%
[3]
  maximal growth-stimulatory effect, as a percent of that of estradiol: 102%
  MCF-7 Cell Growth % Efficacy: 100%
  EC50: 16 nM
[4]
  greater uterine weight compared to vehicle-treated OVX animals: did not differ appreciably
  increase in overall body weight after ovariectomy: not observed
[4]; [13]
  Body Weight, mean (SD): 342 (23)^b,c g
[5]
  estrogen antagonist activity in growth inhibition assay in the presence of estrogen: did not function as an estrogen antagonist; also recorded: no activity as an antiestrogen

## COc1ccc(C(Cl)=C(c2ccc(OC)cc2)c2ccc(OC)cc2)cc1 [chlorotrianisene]
[6]
  Rat Uterotrophic Assay % Efficacy: 100%
[3]
  MCF-7 Cell Growth % Efficacy: 89%
  EC50: 28 nM
[11]
  Uterotrophic Assay ED50, determined in the mouse: 40^c μg/day

## CC/C(=C(/c1ccccc1)c1ccc(OCCN(C)C)cc1)c1ccccc1 [cis-tamoxifen]
[6]
  Rat Uterotrophic Assay ED50: 40 µg/day
  Rat Uterotrophic Assay % Efficacy: 52%
[3]
  MCF-7 Cell Growth % Efficacy: 100%

## CC/C(=C(/CC)c1ccc(O)cc1)c1ccc(O)cc1 [diethylstilbestrol]
[6]
  Rat Uterotrophic Assay % Efficacy: 100%
[3]
  MCF-7 Cell Growth % Efficacy: 100%
[11]
  Uterotrophic Assay ED50, determined in the mouse: 3^c μg/day

## CC/C(=C(\c1ccccc1)c1ccc(OCCN(C)C)cc1)c1ccccc1 [trans-tamoxifen, (Z)-2-[4-(1,2-diphenyl-1-butenyl)phenoxy]-N,N-dimethylethanamine]
[6]
  Rat Uterotrophic Assay ED50: 10 µg/day
  Rat Uterotrophic Assay % Efficacy: 12%
[3]
  MCF-7 Cell Growth % Efficacy: 21%
